# Measured values from patent US20260262643A1, “HERBICIDAL BENZOXAZINES” (FMC CORPORATION, priority 2022, published 2026).
# Experiments:
# blackgrass [1] = assay: Test A postemergence; assay type: in vivo, Alopecurus myosuroides; settings: 0 to 100 scale
# Description: (§1) Seeds of plant species selected from barnyardgrass (Echinochloa crusgalli), blackgrass (Alopecurus myosuroides), corn (Zea mays), foxtail, giant (giant foxtail, Setaria faberi), goosegrass (Eleusine indica), kochia (Bassia scoparia), oat, wild (wild oat, Avena fatua), pigweed, palmer (palmer amaranth, palmer pigweed, Amaranthus palmeri), Pigweed, Redroot (redroot pigweed, Amaranthus retroflexus), ragweed (common ragweed, Ambrosia artemisiifolia), ryegrass, Italian (italian ryegrass, Lolium multiflorum), soybean (Glycine max), and wheat (Triticum aestivum) were planted into a blend of loam soil and sand and treated preemergence with a directed soil spray using test chemicals formulated in a non-phytotoxic solvent mixture which included a surfactant. At the same time, plants selected from these crops and weed species and also galium (catchweed bedstraw, Galium aparine) and horseweed (Erigeron canadensis) were planted in pots containing the same blend of loam soil and sand and treated with postemergence applications of test chemicals formulated in the same manner. Plants ranged in height from 2 to 10 cm and were in the one- to two-leaf stage for the postemergence treatment. Treated plants and untreated controls were maintained in a greenhouse for 10 days, after which time all treated plants were compared to untreated controls and visually evaluated for injury. Plant response ratings, summarized in Table A, are based on a 0 to 100 scale where 0 is no effect and 100 is complete control. A dash (-) response means no test result.
# ryegrass, Italian [2] = assay: Test A preemergence; assay type: in vivo, Lolium multiflorum
# Description: as §1
# corn [3] = assay: Test A preemergence; assay type: in vivo, Zea mays; settings: 125 g ai/ha, visual injury after 10 days, 0 to 100 scale, 0 is no effect, 100 is complete control
# Description: as §1
# soybean [4] = assay: Test A preemergence; assay type: in vivo, Glycine max; settings: 125 g ai/ha, visual injury after 10 days, 0 to 100 scale, 0 is no effect, 100 is complete control
# Description: as §1
# goosegrass [5] = assay: Test A postemergence; assay type: in vivo, Eleusine indica; settings: 0 to 100 scale
# Description: as §1
# corn [6] = assay: Test A postemergence; assay type: in vivo, Zea mays; settings: 125 g ai/ha, postemergence, 10 days; 0 to 100 scale, 0 no effect, 100 complete control
# Description: as §1
# pigweed, palmer [7] = assay: Test A postemergence; assay type: in vivo, Amaranthus palmeri; settings: 0 to 100 scale
# Description: as §1
# soybean [8] = assay: Test A postemergence; assay type: in vivo, Glycine max; settings: 125 g ai/ha, postemergence, 10 days; 0 to 100 scale, 0 no effect, 100 complete control
# Description: as §1
# oat, wild [9] = assay: Test A preemergence; assay type: in vivo, Avena fatua; settings: 125 g ai/ha, visual injury after 10 days, 0 to 100 scale, 0 is no effect, 100 is complete control
# Description: as §1
# goosegrass [10] = assay: Test A preemergence; assay type: in vivo, Eleusine indica
# Description: as §1
# pigweed, palmer [11] = assay: Test A preemergence; assay type: in vivo, Amaranthus palmeri
# Description: as §1
# wheat [12] = assay: Test A preemergence; assay type: in vivo, Triticum aestivum; settings: 125 g ai/ha, visual injury after 10 days, 0 to 100 scale, 0 is no effect, 100 is complete control
# Description: as §1
# oat, wild [13] = assay: Test A postemergence; assay type: in vivo, Avena fatua; settings: 125 g ai/ha, postemergence, 10 days; 0 to 100 scale, 0 no effect, 100 complete control
# Description: as §1
# foxtail, giant [14] = assay: Test A preemergence; assay type: in vivo, Setaria faberi
# Description: as §1
# horseweed = assay: Test A postemergence; assay type: in vivo, Erigeron canadensis; settings: 0 to 100 scale
# Description: as §1
# wheat [15] = assay: Test A postemergence; assay type: in vivo, Triticum aestivum; settings: 125 g ai/ha, postemergence, 10 days; 0 to 100 scale, 0 no effect, 100 complete control
# Description: as §1
# foxtail, giant [16] = assay: Test A postemergence; assay type: in vivo, Setaria faberi; settings: 0 to 100 scale
# Description: as §1
# ryegrass, Italian [17] = assay: Test A postemergence; assay type: in vivo, Lolium multiflorum; settings: 0 to 100 scale
# Description: as §1
# ragweed [18] = assay: Test A postemergence; assay type: in vivo, Ambrosia artemisiifolia; settings: 0 to 100 scale
# Description: as §1
# kochia [19] = assay: Test A postemergence; assay type: in vivo, Bassia scoparia; settings: 0 to 100 scale
# Description: as §1
# blackgrass [20] = assay: Test A preemergence; assay type: in vivo, Alopecurus myosuroides
# Description: as §1
# ragweed [21] = assay: Test A preemergence; assay type: in vivo, Ambrosia artemisiifolia
# Description: as §1
# kochia [22] = assay: Test A preemergence; assay type: in vivo, Bassia scoparia
# Description: as §1
# sedge, umbrella = assay: Test B flooded paddy test; assay type: in vivo, Cyperus difformis; settings: 250 g ai/ha, Flood, 13 days, 0 to 100 scale (0 no effect, 100 complete control)
# Procedure: (§2) Plant species in the flooded paddy test selected from barnyardgrass (Echinochloa crus-galli), ducksalad (Heteranthera limosa), rice (Oryza sativa), and sedge, umbrella (small-flower umbrella sedge, Cyperus difformis) were grown to the 2-leaf stage for testing. At time of treatment, test pots were flooded to 3 cm above the soil surface, treated by application of test compounds directly to the paddy water, and then maintained at that water depth for the duration of the test. Treated plants and controls were maintained in a greenhouse for 13 days, after which time all species were compared to controls and visually evaluated. Plant response ratings, summarized in Table B, are based on a scale of 0 to 100 where 0 is no effect and 100 is complete control. A dash (-) response means no test result.
# rice = assay: Test B flooded paddy test; assay type: in vivo, Oryza sativa; settings: 250 g ai/ha, Flood, 13 days, 0 to 100 scale (0 no effect, 100 complete control)
# Procedure: as §2
# galium = assay: Test A postemergence; assay type: in vivo, Galium aparine; settings: 1000 g ai/ha, Postemergence, 0 to 100 scale
# Description: as §1
# ducksalad = assay: Test B flooded paddy test; assay type: in vivo, Heteranthera limosa; settings: 250 g ai/ha, Flood, 13 days, 0 to 100 scale (0 no effect, 100 complete control)
# Procedure: as §2
# barnyardgrass = assay: Test B flooded paddy test; assay type: in vivo, Echinochloa crus-galli; settings: 250 g ai/ha, Flood, 13 days, 0 to 100 scale (0 no effect, 100 complete control)
# Procedure: as §2
# [23] = 125 g ai/ha, postemergence, 10 days, 0 no effect, 100 complete control
# [24] = 125 g ai/ha, visual injury after 10 days, 0 to 100 scale, 0 is no effect, 100 is complete control
# [25] = 1000 g ai/ha, 0 to 100 scale (0 no effect, 100 complete control), 10 days
smiles,measurement,setting,value
CCC(C)c1ncn(-c2cccc(C(=O)N3C[C@H](C)Oc4c(C)cccc43)c2)n1 (stereo partly drawn) [Compound 87],Blackgrass plant response rating,blackgrass [1]; [23],10
same,"Plant response rating, Ryegrass, Italian","ryegrass, Italian [2]; [24]",100
same,"Plant response rating, Corn",corn [3],10
same,"Plant response rating, Soybean",soybean [4],0
same,Goosegrass plant response rating,goosegrass [5]; [23],30
same,Corn plant response rating,corn [6],10
same,"Pigweed, Palmer plant response rating","pigweed, palmer [7]; [23]",30
same,Soybean plant response rating,soybean [8],40
same,"Plant response rating, Oat, Wild","oat, wild [9]",20
same,"Plant response rating, Goosegrass",goosegrass [10]; [24],80
same,"Plant response rating, Pigweed, Palmer","pigweed, palmer [11]; [24]",30
same,"Plant response rating, Wheat",wheat [12],0
same,"Oat, Wild plant response rating","oat, wild [13]",20
same,"Plant response rating, Foxtail, Giant","foxtail, giant [14]; [24]",50
same,Horseweed plant response rating,horseweed; [23],0
same,Wheat plant response rating,wheat [15],10
same,"Foxtail, Giant plant response rating","foxtail, giant [16]; [23]",10
same,"Ryegrass, Italian plant response rating","ryegrass, Italian [17]; [23]",10
same,Ragweed plant response rating,ragweed [18]; [23],50
same,Kochia plant response rating,kochia [19]; [23],70
same,"Plant response rating, Blackgrass",blackgrass [20]; [24],40
same,"Plant response rating, Ragweed",ragweed [21]; [24],0
same,"Plant response rating, Kochia",kochia [22]; [24],30
Cc1cc(C(=O)N2CC(C)Oc3c(Cl)cccc32)cc(-n2cncn2)c1 (stereo not drawn) [Compound 32],"Plant response rating, Blackgrass","blackgrass [1]; 1000 g ai/ha, Postemergence",80
same,"Plant response rating, Sedge, Umbrella","sedge, umbrella",0
same,"Plant response rating, Ryegrass, Italian","ryegrass, Italian [2]; [25]",100
same,"Plant response rating, Rice",rice,0
same,"Plant response rating, Goosegrass","goosegrass [5]; 1000 g ai/ha, Postemergence",80
same,"Plant response rating, Pigweed, Palmer","pigweed, palmer [7]; 1000 g ai/ha, Postemergence",70
same,"Plant response rating, Galium",galium,100
same,"Plant response rating, Ducksalad",ducksalad,0
same,"Plant response rating, Goosegrass",goosegrass [10]; [25],100
same,"Plant response rating, Pigweed, Palmer","pigweed, palmer [11]; [25]",90
same,"Plant response rating, Foxtail, Giant","foxtail, giant [14]; [25]",100
same,"Plant response rating, Horseweed","horseweed; 1000 g ai/ha, Postemergence",0
same,"Plant response rating, Barnyardgrass",barnyardgrass,0
same,"Plant response rating, Foxtail, Giant","foxtail, giant [16]; 1000 g ai/ha, Postemergence",100
same,"Plant response rating, Ryegrass, Italian","ryegrass, Italian [17]; 1000 g ai/ha, Postemergence",90
same,"Plant response rating, Ragweed","ragweed [18]; 1000 g ai/ha, Postemergence",20
same,"Plant response rating, Kochia","kochia [19]; 1000 g ai/ha, Postemergence",60
same,"Plant response rating, Blackgrass",blackgrass [20]; [25],80
same,"Plant response rating, Ragweed",ragweed [21]; [25],0
same,"Plant response rating, Kochia",kochia [22]; [25],30
"C[C@H]1CN(C(=O)c2cccc(-c3cnn(C)c3)c2)c2cccc(Cl)c2O1 [Compound 119, [(2S)-8-Chloro-2,3-dihydro-2-methyl-4H-1,4-benzoxazin-4-yl][3-(1-methyl-1H-pyrazol-4-yl)phenyl]methanone]",pest or weed control at 1000 g/ha,"blackgrass [1]; Alopecurus myosuroides, post-emergence, 240 h, 1000 g ai/ha, Postemergence, read-out: Plant response rating, Blackgrass",70%
same,pest or weed control at 250 g/ha,"sedge, umbrella; Cyperus difformis, 312 h, read-out: Plant response rating, Sedge, Umbrella",0%
same,pest or weed control at 1000 g/ha,"ryegrass, Italian [2]; Lolium multiflorum, pre-emergence, 240 h, 1000 g ai/ha, 0 to 100 scale (0 no effect, 100 complete control), 10 days, read-out: Plant response rating, Ryegrass, Italian",50%
same,plant injury at 250 g/ha,"rice; Oryza sativa, 312 h, read-out: Plant response rating, Rice",0%
same,pest or weed control at 1000 g/ha,"goosegrass [5]; Eleusine indica, post-emergence, 240 h, 1000 g ai/ha, Postemergence, read-out: Plant response rating, Goosegrass",70%
same,pest or weed control at 1000 g/ha,"pigweed, palmer [7]; Amaranthus palmeri, post-emergence, 240 h, 1000 g ai/ha, Postemergence, read-out: Plant response rating, Pigweed, Palmer",80%
same,pest or weed control at 1000 g/ha,"galium; Galium, post-emergence, 240 h, read-out: Plant response rating, Galium",90%
same,pest or weed control at 250 g/ha,"ducksalad; Heteranthera limosa, 312 h, read-out: Plant response rating, Ducksalad",0%
same,pest or weed control at 1000 g/ha,"goosegrass [10]; Eleusine indica, pre-emergence, 240 h, 1000 g ai/ha, 0 to 100 scale (0 no effect, 100 complete control), 10 days, read-out: Plant response rating, Goosegrass",90%
same,pest or weed control at 1000 g/ha,"pigweed, palmer [11]; Amaranthus palmeri, pre-emergence, 240 h, 1000 g ai/ha, 0 to 100 scale (0 no effect, 100 complete control), 10 days, read-out: Plant response rating, Pigweed, Palmer",90%
same,pest or weed control at 1000 g/ha,"foxtail, giant [14]; Setaria faberi, pre-emergence, 240 h, 1000 g ai/ha, 0 to 100 scale (0 no effect, 100 complete control), 10 days, read-out: Plant response rating, Foxtail, Giant",100%
same,pest or weed control at 1000 g/ha,"horseweed; Erigeron canadensis, post-emergence, 240 h, 1000 g ai/ha, Postemergence, read-out: Plant response rating, Horseweed",0%
same,pest or weed control at 250 g/ha,"barnyardgrass; Echinochloa crus-galli, 312 h, read-out: Plant response rating, Barnyardgrass",0%
same,pest or weed control at 1000 g/ha,"foxtail, giant [16]; Setaria faberi, post-emergence, 240 h, 1000 g ai/ha, Postemergence, read-out: Plant response rating, Foxtail, Giant",90%
same,pest or weed control at 1000 g/ha,"ryegrass, Italian [17]; Lolium multiflorum, post-emergence, 240 h, 1000 g ai/ha, Postemergence, read-out: Plant response rating, Ryegrass, Italian",20%
same,pest or weed control at 1000 g/ha,"ragweed [18]; Ambrosia artemisiifolia, post-emergence, 240 h, 1000 g ai/ha, Postemergence, read-out: Plant response rating, Ragweed",70%
same,pest or weed control at 1000 g/ha,"kochia [19]; Bassia scoparia, post-emergence, 240 h, 1000 g ai/ha, Postemergence, read-out: Plant response rating, Kochia",90%
same,pest or weed control at 1000 g/ha,"blackgrass [20]; Alopecurus myosuroides, pre-emergence, 240 h, 1000 g ai/ha, 0 to 100 scale (0 no effect, 100 complete control), 10 days, read-out: Plant response rating, Blackgrass",70%
same,pest or weed control at 1000 g/ha,"ragweed [21]; Ambrosia artemisiifolia, pre-emergence, 240 h, 1000 g ai/ha, 0 to 100 scale (0 no effect, 100 complete control), 10 days, read-out: Plant response rating, Ragweed",90%
same,pest or weed control at 1000 g/ha,"kochia [22]; Bassia scoparia, pre-emergence, 240 h, 1000 g ai/ha, 0 to 100 scale (0 no effect, 100 complete control), 10 days, read-out: Plant response rating, Kochia",10%
